Results on 25 molecules are retold here after US9365511B2, “Biphenyl-ethyl-pyrrolidine derivatives as histamine H3 receptor modulators for the treatment of cognitive disorders” (Arena Pharmaceuticals, Inc., priority 2013, dated 2016).

Entries after “also recorded” stand apart in the source; their conditions may differ.

As a reminder, the IC50 is the concentration that inhibits the measured activity by half.

For one assay, the target named is human H3 receptor (Homo sapiens (Human), UniProt Q9Y5N1). Nature of the assay: Human H3 receptor HTRF cAMP assay. Conditions: HEK293 cells expressing the human H3 receptor, forskolin 2 μM; read-out: IC50 H3R. The class given is cell-based. The text has this: Homogeneous time-resolved fluorescence assays (HTRF®, Cisbio) detect levels of cAMP in lysed cell preparations using a europium or terbium cryptate-labeled anti-cAMP antibody and fluorophore-labeled cAMP (cAMP-d2). In the absence of exogenous cAMP, the anti-cAMP antibody binds to cAMP-d2. Photoexcitation of the cryptate donor results in a combination of cryptate emission at 620 nm and fluorescence resonance energy transfer (FRET) from the cryptate to the acceptor d2 fluorophore, which then fluoresces at 665 nm. The 620/665 nm emission ratio is monitored. In the presence of exogenous cAMP, which competes with cAMP-d2 for binding to the anti-cAMP antibody, FRET is decreased and the […], providing a sensitive and accurate means to measure cAMP levels in biological assays.
human H3 receptor, sequence (Q9Y5N1 whole entry): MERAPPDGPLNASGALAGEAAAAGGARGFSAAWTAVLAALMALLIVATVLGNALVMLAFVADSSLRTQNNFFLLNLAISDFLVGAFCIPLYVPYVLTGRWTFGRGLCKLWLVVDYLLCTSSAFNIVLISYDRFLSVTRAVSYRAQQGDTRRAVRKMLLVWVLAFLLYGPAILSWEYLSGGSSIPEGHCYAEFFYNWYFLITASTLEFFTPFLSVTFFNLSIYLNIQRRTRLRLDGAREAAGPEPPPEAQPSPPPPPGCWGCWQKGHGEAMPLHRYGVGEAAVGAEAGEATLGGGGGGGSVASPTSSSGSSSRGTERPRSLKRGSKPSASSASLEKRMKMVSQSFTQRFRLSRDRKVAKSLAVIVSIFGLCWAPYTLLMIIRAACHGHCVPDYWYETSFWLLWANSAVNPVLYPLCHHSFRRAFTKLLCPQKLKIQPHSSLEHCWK
Compounds of the present invention were evaluated using the human H3 receptor (H3R) HTRF cAMP assay. In this assay, HEK293 cells expressing the human H3 receptor were suspended in PBS containing 100 μM IBMX and plated into 384-well assay plates (Perkin Elmer Proxiplate 384-Plus; 15,000 cells per well; 5 μL plating volume) and allowed to equilibrate for an hour. Test compounds were serially diluted in 100% DMSO and then further diluted in PBS containing forskolin (2 μM). Test compounds (5 μL) were then added to the assay plate and the mixture was incubated for 1 hour. HTRF assay reagents (Cisbio, Dynamic 2 cAMP Kit), cAMP-d2 and cryptate-labeled anti-cAMP antibody, are mixed with cell lysis buffer and added to the assay plate. After 1-hour incubation with these reagents, the assay plate was read on an HTRF-compatible microplate reader (Perkin Elmer EnVision or BMG Pherastar). A cAMP standard curve was included on each assay plate and HTRF emission ratios for test compounds were fit to this curve to generate accurate measures of cAMP levels in each test well.
A general note: Time-resolved FRET reads energy transfer from a long-lived donor to a nearby acceptor.
Take `CCOC(=O)C1CCCCC1NC(=O)C1(c2ccc(-c3ccc(CCN4CCC[C@H]4C)cc3)cc2)CCCC1` (stereo in doubt) [Compound 20, (1R,2S)-Ethyl 2-(1-(4′-(2-((R)-2-Methylpyrrolidin-1-yl)ethyl)biphenyl-4-yl)cyclopentanecarboxamido)cyclohexanecarboxylate]: the IC50 is 3 nM. Same read-out and setting: with `C[C@@H]1CCCN1CCc1ccc(-c2ccc(C(=O)O)cc2)cc1` [Compound 1, (R)-4′-(2-(2-Methylpyrrolidin-1-yl)ethyl)biphenyl-4-carboxylic Acid] the figure was 3.8 nM.

With `C[C@@H]1CCCN1CCc1ccc(-c2ccc(CC(=O)O)cc2)cc1` [Compound 2, (R)-2-(4′-(2-(2-Methylpyrrolidin-1-yl)ethyl)biphenyl-4-yl)acetic Acid], the half-inhibitory concentration (IC50) was found to be 8.1 nM.

Regarding `CCOC(=O)COCc1ccc(-c2ccc(CCN3CCC[C@H]3C)cc2)cc1` [Compound 4, (R)-Ethyl 2-((4′-(2-(2-Methylpyrrolidin-1-yl)ethyl)biphenyl-4-yl)methoxy)acetate], the half-inhibitory concentration (IC50) is 0.67 nM.

Regarding `C[C@@H]1CCCN1CCc1ccc(-c2ccc(COCC(=O)O)cc2)cc1` [Compound 5, (R)-2-((4′-(2-(2-Methylpyrrolidin-1-yl)ethyl)biphenyl-4-yl)methoxy)acetic Acid], the half-maximal inhibitory concentration (IC50) is 5.5 nM. The same measure, in the same setting: with `C[C@@H]1CCCN1CCc1ccc(-c2ccc(CCn3cnnn3)cc2)cc1` [Compound 7, (R)-1-(2-(4′-(2-(2-Methylpyrrolidin-1-yl)ethyl)biphenyl-4-yl)ethyl)-1H-tetrazole] the figure was 0.93 nM.

With `C[C@@H]1CCCN1CCc1ccc(-c2ccc(CCn3ncnn3)cc2)cc1` [Compound 8, (R)-2-(2-(4′-(2-(2-Methylpyrrolidin-1-yl)ethyl)biphenyl-4-yl)ethyl)-2H-tetrazole], the IC50 stood at 1.2 nM. Same read-out and setting: with `COC(=O)CCc1ccc(-c2ccc(CCN3CCC[C@H]3C)cc2)cc1` [Compound 9, (R)-Methyl 3-(4′-(2-(2-Methylpyrrolidin-1-yl)ethyl)biphenyl-4-yl)propanoate] the figure was 1.1 nM; with `C[C@@H]1CCCN1CCc1ccc(-c2ccc(C(C)(C)C(=O)O)cc2)cc1` [Compound 10, (R)-2-Methyl-2-(4′-(2-(2-methylpyrrolidin-1-yl)ethyl)biphenyl-4-yl)propanoic Acid], 3.1 nM; with `CCOC(=O)CCc1ccc(-c2ccc(CCN3CCC[C@H]3C)cc2)cc1` [Compound 11, (R)-Ethyl 3-(4′-(2-(2-Methylpyrrolidin-1-yl)ethyl)biphenyl-4-yl)propanoate], 1.8 nM. Same read-out and setting: to `C[C@@H]1CCCN1CCc1ccc(-c2ccc(CCC(=O)NC(C)(C)C(=O)OC(C)(C)C)cc2)cc1` [Compound 12, (R)-tert-Butyl 2-Methyl-2-(3-(4′-(2-(2-methylpyrrolidin-1-yl)ethyl)biphenyl-4-yl)propanamido)propanoate] belongs 0.95 nM. With `C[C@H](NC(=O)CCc1ccc(-c2ccc(CCN3CCC[C@H]3C)cc2)cc1)C(=O)OC(C)(C)C` [Compound 13, (S)-tert-Butyl 2-(3-(4′-(2-((R)-2-Methylpyrrolidin-1-yl)ethyl)biphenyl-4-yl)propanamido)propanoate], the concentration for half-maximal inhibition (IC50) turned out to be 2.1 nM. For the molecule `COC(=O)CCCNC(=O)C1(c2ccc(-c3ccc(CCN4CCC[C@H]4C)cc3)cc2)CCCC1` [Compound 16, (R)-Methyl 4-(1-(4′-(2-(2-Methylpyrrolidin-1-yl)ethyl)biphenyl-4-yl)cyclopentanecarboxamido)butanoate], the IC50 stood at 1.5 nM. For `C[C@H](NC(=O)CCc1ccc(-c2ccc(CCN3CCC[C@H]3C)cc2)cc1)C(=O)O` [Compound 18, (S)-2-(3-(4′-(2-((R)-2-methylpyrrolidin-1-yl)ethyl)biphenyl-4-yl)propanamido)propanoic acid], the IC50 turned out to be 0.79 nM. Take `COC(=O)CNC(=O)CCc1ccc(-c2ccc(CCN3CCC[C@H]3C)cc2)cc1` [Compound 24, (R)-Methyl 2-(3-(4′-(2-(2-Methylpyrrolidin-1-yl)ethyl)biphenyl-4-yl)propanamido)acetate]: the half-maximal inhibitory concentration (IC50) was found to be 0.99 nM. Same read-out and setting: to `COC(=O)C1(c2ccc(-c3ccc(CCN4CCC[C@H]4C)cc3)cc2)CCCC1` [Compound 25, (R)-Methyl 1-(4′-(2-(2-Methylpyrrolidin-1-yl)ethyl)biphenyl-4-yl)cyclopentanecarboxylate] belongs 3.3 nM; to `C[C@@H]1CCCN1CCc1ccc(-c2ccc(CCC(=O)NCC(=O)OC(C)(C)C)cc2)cc1` [Compound 26, (R)-tert-Butyl 2-(3-(4′-(2-(2-Methylpyrrolidin-1-yl)ethyl)biphenyl-4-yl)propanamido)acetate], 3.8 nM; to `COC(=O)CNC(=O)C1(c2ccc(-c3ccc(CCN4CCC[C@H]4C)cc3)cc2)CCCC1` [Compound 27, (R)-Methyl 2-(1-(4′-(2-(2-Methylpyrrolidin-1-yl)ethyl)biphenyl-4-yl)cyclopentanecarboxamido)acetate], 1.9 nM. Same read-out and setting: to `C[C@@H]1CCCN1CCc1ccc(-c2ccc(C3(C(=O)NCCCC(=O)O)CCCC3)cc2)cc1` [Compound 33, (R)-4-(1-(4′-(2-(2-Methylpyrrolidin-1-yl)ethyl)biphenyl-4-yl)cyclopentanecarboxamido)butanoic Acid] belongs 2.1 nM; to `CCOC(=O)C1CCN(C(=O)CCc2ccc(-c3ccc(CCN4CCC[C@H]4C)cc3)cc2)CC1` [Compound 35, (R)-Ethyl 1-(3-(4′-(2-(2-Methylpyrrolidin-1-yl)ethyl)biphenyl-4-yl)propanoyl)piperidine-4-carboxylate], 0.96 nM.

As for `C[C@@H]1CCCN1CCc1ccc(-c2ccc(Cc3nnn[nH]3)cc2)cc1` [Compound 37, (R)-5-((4′-(2-(2-Methylpyrrolidin-1-yl)ethyl)biphenyl-4-yl)methyl)-1H-tetrazole], the IC50 came to 0.78 nM.

Consider `COC(=O)C(C)(C)NC(=O)c1ccc(-c2ccc(CCN3CCC[C@H]3C)cc2)cc1` [Compound 38, (R)-Methyl 2-Methyl-2-(4′-(2-(2-methylpyrrolidin-1-yl)ethyl)biphenyl-4-ylcarboxamido)propanoate], for which the IC50 stood at 1.2 nM. As to `C[C@@H]1CCCN1CCc1ccc(-c2ccc(C(=O)NCCC(=O)O)cc2)cc1` [Compound 43, (R)-3-(4′-(2-(2-Methylpyrrolidin-1-yl)ethyl)biphenyl-4-ylcarboxamido)propanoic Acid], the IC50 is 2.5 nM. Still for that read-out and setting: to `C[C@@H]1CCCN1CCc1ccc(-c2ccc(CCc3nnn[nH]3)cc2)cc1` [Compound 44, (R)-5-(2-(4′-(2-(2-Methylpyrrolidin-1-yl)ethyl)biphenyl-4-yl)ethyl)-1H-tetrazole] belongs 6.9 nM. Still for that read-out and setting: to `C[C@@H]1CCCN1CCc1ccc(-c2ccc(CCCC(=O)O)cc2)cc1` [Compound 45, (R)-4-(4′-(2-(2-Methylpyrrolidin-1-yl)ethyl)biphenyl-4-yl)butanoic Acid] belongs 0.97 nM.

For another assay, the system named is histamine-induced scratching behavior in mice. The assay is described as follows: Histamine-induced model for pruritus (Example 6). It counts as in vivo, C57BL/6j male mice. Conditions: oral administration, histamine s.c. 30 min post-dosing, bouts counted 5-15 min, FIG. 6. Here is the method:
H3R inhibitors, Compound 3 and Compound 11, were dissolved in 0.5% methylcellulose at the appropriate concentration and 100 μL were administered orally to 8-week-old C57BL/6j male mice. Thirty minutes post-dosing, 25 μL of 40 mg/mL histamine solution was injected subcutaneously at the rostral part of the back. Mice were video recorded and the number of scratching bouts that occurred between 5 and 15 minutes was counted after histamine injection.
Turning to `CCOC(=O)CCc1ccc(-c2ccc(CCN3CCC[C@H]3C)cc2)cc1` [Compound 11, (R)-Ethyl 3-(4′-(2-(2-Methylpyrrolidin-1-yl)ethyl)biphenyl-4-yl)propanoate], the “histamine-induced scratching behavior (number of scratching bouts)” value was “effectively inhibit histamine-induced pruritus; also recorded: inhibit histamine-induced scratching behavior”.
